US20170035791A1, “COMBINATION OF BETA-GLUCOSYLCERAMIDE AND POLYETHOXYLATED CASTOR OIL AND OTHER ADJUVANTS FOR CONTROLING BLOOD SUGAR LEVELS, IMMUNOPROTECTION AND HEPATOPROTECTION” (NATURAL SHIELD ISRAEL 2016 LTD, priority 2014, published 2017)

Key:
C57B1/6 mice [1] = experiment: Blood sugar AUC in mice after oral Coca Cola with GC and/or CE add-on; type: in vivo; details: Coca Cola + add-on 350 μl/mouse by gavage, glucose at 0, 15, 30 min, Coca Cola alone 4785 ± 208
Method: Male C57B1/6 mice (11-12 weeks old) were obtained from Harlan Laboratories (Jerusalem, Israel) and maintained in the Animal Core of the Hadassah-Hebrew University Medical School. All mice were administered standard laboratory chow and water ad libitum and kept in a 12-hour light/dark cycle. SSBs (Coca Cola or orange flavored soda) including additives GC and/or CE were orally administered in a volume of 300-350 μl per mouse by gavage. The animal experiments were carried out according to the guidelines of the Hebrew University-Hadassah Institutional Committee for Care and Use of Laboratory Animals and with the committee's approval. […]
To evaluate the ability of GC to control blood sugar levels during consumption of a high glucose beverage, the inventors examined the effect of GC alone and of GC with CE combination, on mice consuming various high sugar soft drinks. […] Glucose levels were measured at 0, 15, and 30 min after Coca Cola administration.
To further evaluate the effect of C:E on blood sugar levels following consumption of Coca Cola, the inventors performed the experiment in Table 2, including group A receiving orally Coca Cola +C:E (350 μl/mouse by gavage) and group B receiving Coca Cola only (300 μl/mouse by gavage). Glucose levels were measured at 0, 15, and 30 min after Coca Cola administration.

C57B1/6 mice [2] = experiment: Glucose tolerance test (GTT) in mice after Coca Cola with GC in C:E, GC in ethanol or C:E (Table 5, FIG. 5); type: in vivo; details: Coca Cola + add-on
Method: Male C57B1/6 mice (11-12 weeks old) were obtained from Harlan Laboratories (Jerusalem, Israel) and maintained in the Animal Core of the Hadassah-Hebrew University Medical School. All mice were administered standard laboratory chow and water ad libitum and kept in a 12-hour light/dark cycle. SSBs (Coca Cola or orange flavored soda) including additives GC and/or CE were orally administered in a volume of 300-350 μl per mouse by gavage. The animal experiments were carried out according to the guidelines of the Hebrew University-Hadassah Institutional Committee for Care and Use of Laboratory Animals and with the committee's approval.
Beta-glucosylceramide (GC) solution consisted of 60 mg GC (purchased from Avanti Polar Lipids; Alabaster, Ala., USA) dissolved in 1 ml mixture of 30% Cremophor EL (Sigma, Rehovot, Israel) and ethanol (1:1; CE) or ethanol alone. These served basis for preparation of SSBs containing GC and/or CE, including 1800 μl Coca Cola or other SSB and 400 μl GC in CE or ethanol or CE alone.
Mice undergo a glucose tolerance test on day 60. Glucose is administered orally (1 g per kg). Serum glucose measurements is performed on tail-vein blood every fifteen minutes for three hours. Glucose levels are measured by a standard glucometer. […]

ConA mouse model = experiment: Concanavalin A (ConA) induced immune-mediated hepatitis, serum ALT and AST; type: in vivo, mice; details: ConA 0.5 mg/mouse i.v., oral GC 3 mg/mouse or C:E 30 μl/mouse, 15 hours following ConA
Method: Concanavalin A solution (ConA; purchased from MP Biomedicals, USA) consisted of 2 mg ConA in 1 ml distilled water. Mice were intravenously (IV) injected with 250 μl ConA solution (0.5 mg/mouse).
(§1) Mice were tested for serum alanine transaminase (ALT) and aspartate aminotransferase (AST) at 24 hours after acetaminophen administration. Serum AST and ALT levels were measured by an automatic analyzer.
The inventors next examined the effect of the combination of GC and C:E on the immune-mediated hepatitis in Con A mouse model. Details on the relevant experimental procedures are given above in experimental procedures. In brief, mice were injected i.v. with 250 μl ConA (0.5 mg/mouse) for 15 hrs prior to oral treatments, including C:E: ethanol 1:1 solution administered (30 μl/mouse); GC with CE as 100 mg GC dissolved in 1 ml C:E or GC in ethanol as 100 mg GC dissolved in 1 ml ethanol abs. administered (3 mg/mouse); control as PBS administered (30 μl/mouse).

[3] = system: APAP-mediated liver toxicity in male adult mice; experiment: Acetaminophen (APAP) mediated liver toxicity, serum ALT; type: in vivo; details: APAP 4.6 mg/mouse; oral treatment 1 hour after APAP, GC 3 mg/mouse or C:E 30 μl/mouse; 24 hours after APAP; control 15612
Method: Acetaminophen powder (APAP; was purchased from Sigma, cat. # A7085), was dissolved in a mixture of 30% Cremophor EL (Sigma, Rehovot, Israel) and ethanol (1:1) in DDW (Di distilled water).
as §1
APAP-mediated liver toxicity was induced in male adult mice fasted overnight and 2 hours after APAP administration. APAP was i.v. injected at the concentration of 4.6 mg/mouse. Various treatments, GC or C:E alone, GC with C:E and controls, were administered 1 hour after APAP injection. For various oral treatments, C:E: Cremophor:ethanol 1:1 solution was administered (30 μl/mouse); GC with CE: 100 mg GC dissolved in 1 ml C:E or GC in ethanol: 100 mg GC dissolved in 1 ml Ethanol Abs. were administered (3 mg/mouse); Control:PBS administered (30 μl/mouse).
All mice were sacrificed 24 hours after APAP administration and serum levels of ALT were measured.

human subject = experiment: Blood sugar levels in a human subject after drinking Coca Cola with GC or GC with CE add-ons; type: in vivo; details: 500 ml Coca Cola with 28 mg GC add-on
Method: A human subject healthy person was monitored for blood sugar levels for 2 hours every 15 minutes following an overnight fast and drinking of 500 ml of Coca Cola alone or Coca Cola with GC or GC with CE add-ons.

[4] = system: alcohol induced liver damage mouse model; experiment: Alcohol induced liver damage in a mouse model, ALT; type: in vivo; details: mice, alcohol 6 gr/kg by gavage with 6 microgram GC; after 16 hours; EtOH alone 414, naive 28
Method: The inventors further characterized the ameliorating effect of the GC—the alcohol induced liver damage in a mouse model. Table 9 summarizes the relevant experimental groups, including group A of naïve mice; group B receiving alcohol 6 gr/kg-300 μl of 70% Ethanol per mouse/gavage i.e. 3500 μl EtOH Abs.+1500 μl sterile water (Ethanol is equal to 6 gr/kg for 27.5 gr mouse body weight).; Group C receiving 6 microgram of GC with alcohol. Mice were sacrificed after 16 hours and the level of liver enzymes was evaluated.

## Beta-glucosylceramide [GC]
C57B1/6 mice [1]
  AUC 30 minutes (blood sugar levels): 4381.25 ± 320
C57B1/6 mice [2]
  AUC at 30 minutes, effect compared to controls (FIG. 5B): significant
ConA mouse model; control 8807
  AST (serum): 2231
ConA mouse model; control 8887
  ALT (serum): 1875
[3]
  ALT (serum): 9290
Human subject; time 15 min
  Glucose: 128 mg %
Human subject; time 30 min
  Glucose: 135 mg %
Human subject; time 45 min
  Glucose: 152 mg %
Human subject; time 60 min
  Glucose: 132 mg %
Human subject; time 75 min
  Glucose: 124 mg %
Human subject; time 90 min
  Glucose: 124 mg %
Human subject; time 105 min
  Glucose: 96 mg %
Human subject; time 120 min
  Glucose: 96 mg %
Human subject; overnight fast, time 0 min
  Glucose: 95 mg %
[4]
  ALT levees: 73
